Results published in patent US20080187512A1, “Treatment for spinal muscular atrophy” (Academia Sinica, priority 2007, published 2008).
Like-named read-outs stand apart in the source and are kept apart here.

Assays:
Stat2 (pY705) = experiment: Signaling pathway screen in SMN2-NSC34 cells; format: cell-based, mouse
Stat5 (pT694) = experiment: Signaling pathway screen in SMN2-NSC34 cells; format: cell-based, mouse; parameters: Stat5 (pT694) cellular response: key: −: decreasing; +/−: no activation; +: slight activation; ++: minor activation; +++: significant activation
Procedure: (§1) Western blot analysis. Cells treated by dsRNA, compounds or Stat5A1*6 transfected were detached by scraping, pelletting and rinsing in PBS. Cell pellets were collected after centrifugation and lysed on ice in modified RIPA buffer (50 mM Tris-HCl (pH7.4), 1% NP-40, 0.25% deoxycholic acid, 0.15M NaCl, 1 mM EDTA, 1 mM PMSF/NaF/sodium orthovanadate, and protease inhibitors cocktail (Roche, Mannheim, Germany) for 30 min. After centrifugation, the supernatants were collected and kept frozen at −20° C. Protein concentrations were determined by Bio-Rad protein assay method. For Western blot analysis, protein samples were boiled for 5 min and electrophoresed on 8% or 10% SDS-polyacrylamide gel in a 1× running buffer (25 mM Tris, 192 mM glycine, 3.4 mM SDS, pH 8.3) and subsequently electrotransferred to Polyvinylidene Fluoride tansfer membrane (Pall, Pensacola, Fla.) using a TE 22 mini-tank transfer unit (Amersham Biosciences, San Francisco, Calif.) at 35 volts overnight in transfer buffer (25 mM Tris, 192 mM glycine, 20% methanol, pH8.3). The blotting membranes were incubated in blocking solution (PBS, 5% non-fat milk, 0.2% Tween-20) for 1 hour at room temperature, and then incubated in the same solution with the primary antibody (human-specific SMN/1:1000; SMN/1:5000, Transduction Laboratories, Lexington, Ky.; phospho-Stat5a/b/1:1000, Cell signaling, Beverly, Mass.; phospho-Jak2/1:1000, Upstate, Lake Placid, N.Y.; Flag BioM2/1:1000, Sigma, St. Louis, MO; c-myc/1:200, Santa Cruz Biotech, Santa Cruz, Calif.; α-Tubilin/1:10000, Upstate, Lake Placid, N.Y., MO), overnight at 4° C. The membranes were washed and incubated in the blocking solution with the proper HRP-conjugated secondary antibody at 1/5000 dilution (Chemicon, Temecula, Calif.) for 1 hour at room temperature. After washing three times in PBS containing 0.1% Tween-20, the signals were visualized by autoradiography (Fuji Medical X-ray film, Fuji Photos, Tokyo) using enhanced chemi-luminescence (ECL detection system; Perkin-Elmer, Boston, Calif.). Western blot quantification was performed by scanning the auto-radiographs with a computerized densitometer. Signal intensities were determined by densitometry analysis (Fuji film LAS-1000 plus pictography) using the program Phoreticx 1D (Phoreticx International).
(§2) Therefore, TSA, aclarubicin and sodium vanadate all induce the activation of Stat5A in motor neuron-like NSC34 cells.

JNK (pT183/pY185) = experiment: Signaling pathway screen in SMN2-NSC34 cells; format: cell-based, mouse
PI3-Kinase = conditions: SMN2-NSC34 cells
Procedure: as §1

RPTPα = conditions: SMN2-NSC34 cells
Procedure: as §1

Jak1 (pY1022/pY1023) = conditions: SMN2-NSC34 cells
Procedure: as §1

PTP1C/SHP1 = conditions: SMN2-NSC34 cells
Procedure: as §1

SHC = conditions: SMN2-NSC34 cells
Procedure: as §1

RPTPβ = conditions: SMN2-NSC34 cells
Procedure: as §1

ShcC = conditions: SMN2-NSC34 cells
Procedure: as §1

KAP = conditions: SMN2-NSC34 cells
Procedure: as §1

LAR = conditions: SMN2-NSC34 cells
Procedure: as §1

GRB2 = conditions: SMN2-NSC34 cells
Procedure: as §1

Crk = conditions: SMN2-NSC34 cells
Procedure: as §1

PTP1B = conditions: SMN2-NSC34 cells
Procedure: as §1

GRB14 = conditions: SMN2-NSC34 cells
Procedure: as §1

MKP2 = conditions: SMN2-NSC34 cells
Procedure: as §1

NCK = conditions: SMN2-NSC34 cells
Procedure: as §1

Stat1 (pY701) = experiment: Signaling pathway screen in SMN2-NSC34 cells; format: cell-based, mouse
Jak2 (pY1007/pY1008) = experiment: Signaling pathway screen in SMN2-NSC34 cells; format: cell-based, mouse; as to Jak2 (pY1007/pY1008) cellular response: key: −: decreasing; +/−: no activation; +: slight activation; ++: minor activation; +++: significant activation
Procedure: as §1, §2

SMN2 = SMN2 splicing pattern, semi-quantitative RT-PCR in SMA-like MEFs; format: cell-based, mouse; parameters: key to SMN2 splicing pattern MEF: −: no effect; +: effective; +++: most effective
Stat3 (pY705) = experiment: Signaling pathway screen in SMN2-NSC34 cells; format: cell-based, mouse
ERK1/2 (pT202/pY204) = experiment: Signaling pathway screen in SMN2-NSC34 cells; format: cell-based, mouse
Stat6 (pT641) = experiment: Signaling pathway screen in SMN2-NSC34 cells; format: cell-based, mouse

Sodium vanadate
++ and +++: Stat5 (pT694) cellular response (Stat5 (pT694))
remained activated: Stat5 phosphorylation status at 8 hours (Stat5 (pT694))
+: JNK (pT183/pY185) cellular response (JNK (pT183/pY185); 8 hrs) | Jak1 (pY1022/pY1023) cellular response (Jak1 (pY1022/pY1023); 8 hrs) | Stat3 (pY705) cellular response (Stat3 (pY705); 4 hrs) | ERK1/2 (pT202/pY204) cellular response (ERK1/2 (pT202/pY204); 4 hrs)
found activated: Jak2 activation (Jak2 (pY1007/pY1008))
+ and ++: Jak2 (pY1007/pY1008) cellular response (Jak2 (pY1007/pY1008))
found to influence SMN2 expression: influence on SMN2 expression (SMN2)
++: Stat3 (pY705) cellular response (Stat3 (pY705); 8 hrs) | ERK1/2 (pT202/pY204) cellular response (ERK1/2 (pT202/pY204); 8 hrs)
about 6 fold: phosphorylation level of Stat5 increased compared to control cells (Stat5 (pT694))
−: RPTPα cellular response (RPTPα; 8 hrs) | PTP1C/SHP1 cellular response (PTP1C/SHP1; 8 hrs) | KAP cellular response (KAP; 8 hrs) | PTP1B cellular response (PTP1B; 8 hrs) | MKP2 cellular response (MKP2; 4 hrs) | MKP2 cellular response (MKP2; 8 hrs) | Stat1 (pY701) cellular response (Stat1 (pY701); 4 hrs) | Stat6 (pT641) cellular response (Stat6 (pT641); 4 hrs) | Stat6 (pT641) cellular response (Stat6 (pT641); 8 hrs)
+++: SMN2 splicing pattern MEF (SMN2)
+/−: Stat2 (pY705) cellular response (Stat2 (pY705); 4 hrs) | Stat2 (pY705) cellular response (Stat2 (pY705); 8 hrs) | JNK (pT183/pY185) cellular response (JNK (pT183/pY185); 4 hrs) | PI3-Kinase cellular response (PI3-Kinase; 4 hrs) | PI3-Kinase cellular response (PI3-Kinase; 8 hrs) | RPTPα cellular response (RPTPα; 4 hrs) | Jak1 (pY1022/pY1023) cellular response (Jak1 (pY1022/pY1023); 4 hrs) | PTP1C/SHP1 cellular response (PTP1C/SHP1; 4 hrs) | SHC cellular response (SHC; 4 hrs) | SHC cellular response (SHC; 8 hrs) | RPTPβ cellular response (RPTPβ; 4 hrs) | RPTPβ cellular response (RPTPβ; 8 hrs) | ShcC cellular response (ShcC; 4 hrs) | ShcC cellular response (ShcC; 8 hrs) | KAP cellular response (KAP; 4 hrs) | LAR cellular response (LAR; 4 hrs) | LAR cellular response (LAR; 8 hrs) | GRB2 cellular response (GRB2; 4 hrs) | GRB2 cellular response (GRB2; 8 hrs) | Crk cellular response (Crk; 4 hrs) | Crk cellular response (Crk; 8 hrs) | PTP1B cellular response (PTP1B; 4 hrs) | GRB14 cellular response (GRB14; 4 hrs) | GRB14 cellular response (GRB14; 8 hrs) | NCK cellular response (NCK; 4 hrs) | NCK cellular response (NCK; 8 hrs) | Stat1 (pY701) cellular response (Stat1 (pY701); 8 hrs)
